Laboratory results taken from patent US7524930B2, “Tumor antigen” (Green Peptide Co., Ltd, priority 2003, dated 2009).

How the values were obtained:
[1] = test system: OK-CTLp or OK-CTL clone; assay: Recognition of peptide-pulsed T2 cells by OK-CTLp or OK-CTL clone (IFN-γ ELISA); type: cell-based, human
[2] = test system: human peripheral blood mononuclear cells (PBMC); assay: CTL induction by peptide from PBMC of HLA-A2-positive cancer patients and healthy individuals, IFN-γ against peptide-pulsed T2 cells (Example 6); type: cell-based; conditions: for INF-γ production: peptide-pulsed T2 cells; for Healthy individuals in whom CTL were induced from PBMC: six healthy individuals; for Patients in whom peptide-specific HLA-A2-restricted CTL were induced from PBMC: sixteen HLA-A2-positive cancer patients
Procedure: For six peptides (P21, P22, P24, P26, P30, and P32) with a purity of 95% or higher among peptides from P20 to P32 derived from gene 7 and CPSF among the tumor antigen peptide obtained in Example 4, the activity to induce CTL in vitro from human peripheral blood mononuclear cells (PBMC) was examined using IFN-γ production as an indicator. PBMC used was prepared from each peripheral blood of sixteen HLA-A2-positive cancer patients (4 patients with pancreatic cancer, seven patients with stomach cancer, and 5 patients with colon cancer) and six healthy individuals. Specifically, 1×10^5 PBMC was added to each well of 96-well U-bottom type microculture plate (Nunc Corp.) and incubated together with 10 μM of each of the above-described peptides in 200 μl culture medium. The culture medium consisted of 45% RPMI-1640, 45% AIM-V (Invitrogen Corp.,) 10% fetal calf serum (FCS), 100U/ml of human interleukin-2, and […] MEM nonessential amino acid solution (Invitrogen Corp.). At day 4 and day 7 after the start of culturing, half of the culture medium was removed and replaced with the above-described composition containing each corresponding peptide. At day 10 after the start of culturing, the cells were collected and washed, followed by reacting with T2 cells, which were pulsed with each corresponding peptide, to measure the amount of IFN-γ produced.

[3] = test system: Panc-1 pancreatic adenocarcinoma cell (HLA-A2); assay: 6-h 51Cr-releasing test of peptide-stimulated PBMC against Panc-1 (Example 6); type: cell-based, human
Procedure: Meanwhile, the above-described cells cultured for 10 days after stimulation by the peptide were further cultured for 10 days. The cytotoxicity of the obtained cells against the Panc-1 pancreatic adenocarcinoma cell (HLA-A2) was measured by the standard 6-h ^51Cr-releasing test in an E/T ratio of 10:1. The results obtained are presented as % specific lysis (table 7). Together with this step, cytotoxicity against SSTW-9 tumor cell as the HLA-A2^− tumor cell was measured to use as a background that was subtracted from the above-described result.

[4] = concentration of peptide 0.1 μM
[5] = PBMC of colon cancer patient 12
[6] = PBMC of colon cancer patient 13
[7] = PBMC of colon cancer patient 14
[8] = PBMC of colon cancer patient 15
[9] = PBMC of colon cancer patient 16
[10] = PBMC of pancreatic cancer patient 1
[11] = PBMC of pancreatic cancer patient 2
[12] = PBMC of pancreatic cancer patient 3
[13] = PBMC of pancreatic cancer patient 4
[14] = PBMC of stomach cancer patient 5
[15] = PBMC of stomach cancer patient 6
[16] = PBMC of stomach cancer patient 7
[17] = PBMC of stomach cancer patient 8
[18] = PBMC of stomach cancer patient 9
[19] = PBMC of stomach cancer patient 10
[20] = PBMC of stomach cancer patient 11
[21] = PBMC of colon cancer patient 12, Panc-1, E/T 10:1
[22] = PBMC of colon cancer patient 14, Panc-1, E/T 10:1
[23] = PBMC of pancreatic cancer patient 2, Panc-1, E/T 10:1, SSTW-9 background subtracted
[24] = PBMC of pancreatic cancer patient 4, Panc-1, E/T 10:1

Row | Sequence | IFN-γ production [1, 4] [pg/mL] | IFN-γ production ([1]; concentration of peptide 1 μM) [pg/mL] | IFN-γ production ([1]; concentration of peptide 10 μM) [pg/mL] | IFN-γ production ([1]; concentration of peptide 50 μM) [pg/mL] | INF-γ production [2, 5] [pg/mL] | INF-γ production [2, 6] [pg/mL] | INF-γ production [2, 7] [pg/mL] | INF-γ production [2, 8] [pg/mL] | INF-γ production [2, 9] [pg/mL] | INF-γ production ([2]; PBMC of healthy individual HD1) [pg/mL] | INF-γ production ([2]; PBMC of healthy individual HD2) [pg/mL] | INF-γ production ([2]; PBMC of healthy individual HD3) [pg/mL] | INF-γ production ([2]; PBMC of healthy individual HD4) [pg/mL] | INF-γ production ([2]; PBMC of healthy individual HD5) [pg/mL] | INF-γ production ([2]; PBMC of healthy individual HD6) [pg/mL] | INF-γ production [2, 10] [pg/mL] | INF-γ production [2, 11] [pg/mL] | INF-γ production [2, 12] [pg/mL] | INF-γ production [2, 13] [pg/mL] | INF-γ production [2, 14] [pg/mL] | further results
1 | DMWTVIAPV (Designed peptide having an ability to activate HLA-A2 restricted Cytotoxic T lymphocytes) [Peptide P22, CPSF 534-542] | 254 | 1027 | 431 | 407 | 92 | 179 | 80 | 5 | 0 | 0 | 0 | 0 | 0 | 0 | 14 | 0 | 38 | 0 | 8 | 0 | INF-γ production [2, 15]: 0 pg/mL; INF-γ production [2, 16]: 0 pg/mL; INF-γ production [2, 17]: 0 pg/mL; INF-γ production [2, 18]: 0 pg/mL; INF-γ production [2, 19]: 0 pg/mL; INF-γ production [2, 20]: 0 pg/mL; Healthy individuals in whom CTL were induced from PBMC [2]: 33%; Patients in whom peptide-specific HLA-A2-restricted CTL were induced from PBMC [2]: 38%; % specific lysis [3, 21]: 28%; % specific lysis [3, 22]: 19%; % specific lysis [3, 23]: 37%
2 | KVHPVIWSL [Peptide P21] | 428 | 501 | 81 | 195 | 0 | 0 | 66 | 0 | 140 | 0 | 0 | 58 | 5 | 224 | 97 | 0 | 7 | 0 | 543 | 0 | INF-γ production [2, 15]: 0 pg/mL; INF-γ production [2, 16]: 0 pg/mL; INF-γ production [2, 17]: 5 pg/mL; INF-γ production [2, 18]: > 1500 pg/mL; INF-γ production [2, 19]: 0 pg/mL; INF-γ production [2, 20]: 136 pg/mL; Healthy individuals in whom CTL were induced from PBMC [2]: 50%; Patients in whom peptide-specific HLA-A2-restricted CTL were induced from PBMC [2]: 31%; % specific lysis [3, 22]: 11%; % specific lysis [3, 24]: 12%; % specific lysis ([3]; PBMC of stomach cancer patient 9, Panc-1, E/T 10:1): 27%; % specific lysis ([3]; PBMC of stomach cancer patient 11, Panc-1, E/T 10:1): 18%
3 | LLLKYTEKL [Peptide P24] | 728 |  | 103 | 2 |  |  |  |  |  |  |  |  |  |  |  |  |  |  |  |  | 
4 | LLRRADFHV (Designed peptide having an ability to activate HLA-A2 restricted Cytotoxic T lymphocytes) [Peptide P26, Gene 7 1296-1304] | 141 | 418 | 1239 | 0 | 0 | 0 | 0 | 40 | 45 | 0 | 0 | 0 | 0 | 13 | 0 | 0 | 35 | 0 | 77 | 53 | INF-γ production [2, 15]: 0 pg/mL; INF-γ production [2, 16]: 0 pg/mL; INF-γ production [2, 17]: 11 pg/mL; INF-γ production [2, 18]: 8 pg/mL; INF-γ production [2, 19]: 0 pg/mL; INF-γ production [2, 20]: 0 pg/mL; Patients in whom peptide-specific HLA-A2-restricted CTL were induced from PBMC [2]: 31%; % specific lysis ([3]; PBMC of colon cancer patient 15, Panc-1, E/T 10:1): 12%; % specific lysis [3, 23]: 36%; % specific lysis [3, 24]: 20%; % specific lysis ([3]; PBMC of stomach cancer patient 5, Panc-1, E/T 10:1): 11%
5 | LMLQNALTIM (LMLQNALTTM; Designed peptide having an ability to activate HLA-A2 restricted Cytotoxic T lymphocytes) [Peptide P30, Gene 7 1359-1368] | 88 | 7001 |  |  | 0 | 41 | 33 | 0 | 68 | 0 | 0 | 14 | 0 | 0 | 0 | 0 | 12 | 0 | 73 | 0 | INF-γ production [2, 15]: 0 pg/mL; INF-γ production [2, 16]: 0 pg/mL; INF-γ production [2, 17]: 146 pg/mL; INF-γ production [2, 18]: 92 pg/mL; INF-γ production [2, 19]: 46 pg/mL; INF-γ production [2, 20]: 0 pg/mL; Patients in whom peptide-specific HLA-A2-restricted CTL were induced from PBMC [2]: 44%; % specific lysis ([3]; PBMC of colon cancer patient 13, Panc-1, E/T 10:1): 12%; % specific lysis [3, 22]: 10%; % specific lysis [3, 24]: 11%; % specific lysis ([3]; PBMC of stomach cancer patient 8, Panc-1, E/T 10:1): 18%; % specific lysis ([3]; PBMC of stomach cancer patient 10, Panc-1, E/T 10:1): 26%
6 | SLLYLNQSV [Peptide P20] | 344 | 643 | 0 | 34 |  |  |  |  |  |  |  |  |  |  |  |  |  |  |  |  | 
7 | TMLPHHAGL [Peptide P25] | 69 | 1569 | 25 | 122 |  |  |  |  |  |  |  |  |  |  |  |  |  |  |  |  | 
8 | TQLATYSFEV (Designed peptide having an ability to activate HLA-A2 restricted Cytotoxic T lymphocytes) [Peptide P32, CPSF 456-465] |  |  |  |  | 57 | 0 | 0 | 0 | 4 | 0 | 0 | 0 | 0 | 0 | 0 | 0 | 12 | 0 | 0 | 0 | INF-γ production [2, 15]: 0 pg/mL; INF-γ production [2, 16]: 0 pg/mL; INF-γ production [2, 17]: 0 pg/mL; INF-γ production [2, 18]: 0 pg/mL; INF-γ production [2, 19]: 0 pg/mL; INF-γ production [2, 20]: 0 pg/mL; Patients in whom peptide-specific HLA-A2-restricted CTL were induced from PBMC [2]: 7%; % specific lysis [3, 21]: 18%
9 | YQLPDWRLV [Peptide P29] | 0 |  | 86 | 362 |  |  |  |  |  |  |  |  |  |  |  |  |  |  |  |  | 
